“Also recorded” adds a separate entry of the source.
Test system: CFHNE monolayers
Assay: Monolayer resistance / tight junction integrity in Ussing chambers (toxicity)
Type: cell-based, human
Description: 3. In addition, delayed toxic effects could result in long-term damage of the monolayers that would not become apparent for several hours. Therefore, it is of interest to note whether the resistance or conductance was affected during this period. A reduction in resistance in monolayers treated with compound could indicate weakened tight junctions.
[…] […] As a control, the effect of pretreatment with phosphate-propionoxymethyl ester (26.6 μM) was tested using the same protocol.

Q: `CCCCCCCCOC1C(OC(=O)CCC)C(OP(=O)(OCOC(=O)CC)OCOC(=O)CC)C(OP(=O)(OCOC(=O)CC)OCOC(=O)CC)C(OP(=O)(OCOC(=O)CC)OCOC(=O)CC)C1OP(=O)(OCOC(=O)CC)OCOC(=O)CC` (stereo not shown) [INO-E2, 2-O-butyryl-1-O-octyl-myo-inositol 3,4,5,6-tetrakisphosphate octakis (propionoxymethyl) ester] was tested. Which “toxicity on repeated exposure (deterioration of tight junctions)” value (1-2.5 μM repeatedly over 96 hours) did it give?
A: no indication of toxicity; also recorded: No evidence of toxicity

Q: What about the “toxic effects as evaluated by tight junction integrity” value (2 hr exposure 24 hrs before, up to highest concentration 200 μM) of the same molecule?
A: no apparent toxic effects

Q: What about the “integrity of the monolayers at high concentration” value (concentrations in 100 fold excess of the acute EC50) of the same molecule?
A: no decrement in the integrity of the monolayers

Q: And the monolayer resistance (measured shortly after mounting, highest concentration 200 μM)?
A: increased
